pIC50: −log10 of the molar value.
Assays:
[1] = tested on: acyl-coenzyme A: cholesterol acyltransferase; experiment: Inhibition of intracellular cholesterol esterification (ACAT), test procedure of Ross et al.; format: cell-based; settings: for % Inhib, (Concentration - µM): 25 µM; for pIC50: read-out: IC₅₀
Text: The ability of the compounds of this invention to inhibit acyl-coenzyme A: cholesterol acyltransferase was established by initially showing that they inhibited intracellular cholesterol esterification by subjecting them to the standard experimental test procedure of Ross et al., J. Biol. Chem. 259 815 (1984). The results of these studies are presented in: Table I

[2] = tested on: ¹⁴C-Cholesterol Absorption; experiment: In vivo 14C-cholesterol absorption in normal rats; settings: oral gavage, blood samples six hours later
Protocol: Representative compounds were further tested in vivo to establish the percent inhibition of cholesterol absorption. In this study, normal rats were dosed (oral gavage) with ¹⁴C-cholesterol plus the test compound. Blood samples taken exactly six hours later were analyzed and the percent inhibition of cholesterol absorption was calculated as shown in: Table II

plasma cholesterol = experiment: Cholesterol-cholic acid fed rat, decrease of plasma cholesterol; format: in vivo; settings: 10 mg/kg, oral gavage just prior to and just following feeding, four days
Protocol: In addition, the product of Example 1 was studied in vivo in the cholesterol-cholic acid fed rat to determine the percent decrease of cholesterol in their plasma This study involves rats which are, prior to testing, trained for one week to eat over a four hour time period each day. Upon initiation of the experiment, the rats diet is supplemented with 1.0 percent cholesterol and 0.25 percent cholic acid. The rats are dosed with the test compound by oral gavage just prior to and just following the four hour feeding period. This is repeated for four days. On the fifth day, the rats are sacrificed and the total plasma cholesterol content is determined. The percent decrease in elevated plasma cholesterol levels is calculated in comparison with […] controls.

Row | Structure (SMILES) | % Inhib, (Concentration - µM) [1] | pIC50 [1] | % Inhibition of Absorption ([2]; dose 3 mg/kg) [%] | decrease in plasma cholesterol (plasma cholesterol) [%] | % Inhibition of Absorption ([2]; dose 10 mg/kg) [%]
1 | CCCCCCN(Cc1csc2ccccc12)C(Nc1cc(C(C)(C)C)c(O)c(C(C)(C)C)c1)=C1C(=O)OC(C)(C)OC1=O [Example 21, 5-[(Benzo[b]thiophen-3-ylmethyl-hexyl-amino)-(3,5-di-tert-butyl-4-hydroxy-phenylamino)-methylene]-2,2-dimethyl-[1,3]dioxane-4,6-dione] | 98 (25) % | 6.42 | – | – | –
2 | CCCCCCN(Cc1ccnc2ccccc12)C(Nc1ccc(OC)cc1OC)=C1C(=O)OC(C)(C)OC1=O [Example 2, 5-[[(2,4-Dimethoxyphenyl)amino][hexyl(4-quinolinylmethyl)amino]methylene]-2,2-dimethyl-1,3-dioxane-4,6-dione] | – | – | 2 | – | –
3 | CCCCCCN(Cc1ccnc2ccccc12)C(Nc1cc(C(C)(C)C)c(O)c(C(C)(C)C)c1)=C1C(=O)OC(C)(C)OC1=O [Example 1, 5-[[[3,5-Bis(1,1-dimethylethyl)-4-hydroxyphenyl]amino][hexyl(4-quinolinylmethyl)amino]methylene]-2,2-dimethyl-1,3-dioxane-4,6-dione] | 69 (25) % | 5.53 | – | 50 | 72
4 | CCCCCC(C)N(Cc1ccnc2ccccc12)C(Nc1ccc(OC)cc1OC)=C1C(=O)OC(C)(C)OC1=O (stereo not drawn) [Example 7, 5-[[(2,4-Dimethoxyphenyl)amino][(1-methylhexyl)(4-quinolinylmethyl)amino]methylene]-2,2-dimethyl-1,3-dioxane-4,6-dione] | 51 (25) % | 5.03 | – | – | –
5 | CCCCCC(C)N(Cc1cc2ccccc2s1)C(Nc1cc(C(C)(C)C)c(O)c(C(C)(C)C)c1)=C1C(=O)OC(C)(C)OC1=O (stereo not drawn) [Example 24, 5-[[Benzo[b]thiophen-2-ylmethyl-(1-methyl-hexyl)-amino]-(3,5-di-tert-butyl-4-hydroxy-phenylamino)methylene]-2,2-dimethyl-[1,3]dioxane-4,6-dione] | 98 (25) % | 6.51 | – | – | –
6 | CCCCCCN(Cc1ccc2ccccc2n1)C(Nc1cc(C(C)(C)C)c(O)c(C(C)(C)C)c1)=C1C(=O)OC(C)(C)OC1=O [Example 3, 5-[[[3,5-Bis(1,1-dimethylethyl)-4-hydroxyphenyl]amino][hexyl(2-quinolinylmethyl)amino]methylene]-2,2-dimethyl-1,3-dioxane-4,6-dione] | 55 (25) % | 5.63 | 11 | – | –
7 | CCCCCCC(C)N(Cc1ccc(CC(C)(C)C)s1)C(Nc1cc(C(C)(C)C)c(O)c(C(C)(C)C)c1)=C1C(=O)OC(C)(C)OC1=O (stereo not drawn) [Example 19, 5-[[[3,5-Bis(1,1-dimethylethyl)-4-hydroxyphenyl]amino][[[5-(2,2-dimethylpropyl)-2-thienyl]methyl](1-methylheptyl)amino]methylene]-2,2-dimethyl-1,3-dioxane-4,6-dione] | – | 6.19 | – | – | –
8 | CCCCCCN(Cc1ccncc1)C(Nc1cc(C(C)(C)C)c(O)c(C(C)(C)C)c1)=C1C(=O)OC(C)(C)OC1=O [Example 10, 5-[(3,5-Di-tert-butyl-4-hydroxy-phenylamino)-(hexyl-(pyridin-4-ylmethyl)-amino)-methylene]-2,2-dimethyl-1,3-dioxane-4,6-dione] | 94 (25) % | 5.24 | – | – | –
9 | CCCCCCN(Cc1ccccn1)C(Nc1cc(C(C)(C)C)c(O)c(C(C)(C)C)c1)=C1C(=O)OC(C)(C)OC1=O [Example 12, 5-[(3,5-Di-tert-butyl-4-hydroxy-phenylamino)-(hexyl-(pyridin-2-ylmethyl)-amino]-methylene]-2,2-dimethyl-[1,3]-dioxane-4,6-dione] | 92 (25) % | 5.39 | – | – | 65
10 | CCCCCC(C)N(Cc1ccnc2ccccc12)C(Nc1cc(C(C)(C)C)c(O)c(C(C)(C)C)c1)=C1C(=O)OC(C)(C)OC1=O (stereo not drawn) [Example 8, 5-[[[3,5-Bis(1,1-dimethylethyl)-4-hydroxyphenyl]amino][(1-methylhexyl)(4-quinolinylmethyl)amino]methylene]-2,2-dimethyl-1,3-dioxane-4,6-dione] | 97 (25) % | 5.78 | – | – | –
11 | CCCCCCCN(Cc1ccc(CC(C)(C)C)s1)C(Nc1cc(C(C)(C)C)c(O)c(C(C)(C)C)c1)=C1C(=O)OC(C)(C)OC1=O [Example 17, 5-[[[3,5-Bis(1,1-dimethylethyl)-4-hydroxyphenyl]amino][[[5-(2,2-dimethylpropyl)-2-thienyl]methyl]heptylamino]methylene]-2,2-dimethyl-1,3-dioxane-4,6-dione] | – | 6.15 | – | – | –
12 | CCCCCCN(Cc1cccnc1)C(Nc1cc(C(C)(C)C)c(O)c(C(C)(C)C)c1)=C1C(=O)OC(C)(C)OC1=O [Example 15, 5-[(3,5-Di-tert-butyl-4-hydroxy-phenylamino)-[hexyl-(pyridin-3-ylmethyl)-amino]-methylene]-2,2-dimethyl-1,3-dioxane-4,6-dione] | 97 (25) % | 5.41 | 48 | – | –
13 | CCCCCC(C)N(Cc1ccc(CC(C)(C)C)s1)C(Nc1ccc(OC)cc1OC)=C1C(=O)OC(C)(C)OC1=O (stereo not drawn) [Example 18, 5-[[(2,4-Dimethoxyphenyl)amino][[[5-(2,2-dimethylpropyl)-2-thienyl]methyl](1-methylhexyl)-amino]methylene]-2,2-dimethyl-1,3-dioxane-4,6-dione] | 97 (25) % | – | – | – | –
14 | CCCCCCN(Cc1ccc2ccccc2n1)C(Nc1ccc(OC)cc1OC)=C1C(=O)OC(C)(C)OC1=O [Example 4, 5-[[(2,4-Dimethoxyphenyl)amino][hexyl(2-quinolinylmethyl)amino]methylene]-2,2-dimethyl-1,3-dioxane-4,6-dione] | 72 (25) % | 5.29 | – | – | –
15 | CCCCCC(C)N(Cc1ccc2ccccc2n1)C(Nc1ccc(OC)cc1OC)=C1C(=O)OC(C)(C)OC1=O (stereo not drawn) [Example 5] | 90 (25) % | 5.62 | – | – | –
16 | CCCCCCN(Cc1cnc2ccccc2c1)C(Nc1cc(C(C)(C)C)c(O)c(C(C)(C)C)c1)=C1C(=O)OC(C)(C)OC1=O [Example 9, 5-[[[3,5-Bis(1,1-dimethylethyl)-4-hydroxyphenyl]amino][hexyl(3-quinolinylmethyl)amino]methylene]-2,2-dimethyl-1,3-dioxane-4,6-dione] | 98 (25) % | 5.87 | – | – | –
17 | CCCCCC(C)N(Cc1ccc2ccccc2n1)C(Nc1cc(C(C)(C)C)c(O)c(C(C)(C)C)c1)=C1C(=O)OC(C)(C)OC1=O (stereo not drawn) [Example 6] | 95 (25) % | 5.81 | – | – | –
18 | CCCCCCN(Cc1cc2ccccc2s1)C(Nc1ccc(OC)cc1OC)=C1C(=O)OC(C)(C)OC1=O [Example 22, 5-[[(Benzo[b]thiophen-2-ylmethyl)-hexyl-amino]-(2,4-dimethoxyphenylamino)-methylene]-2,2-dimethyl-[1,3]dioxane-4,6-] | 94 (25) % | 6.21 | – | – | –
19 | CCCCCCCN(Cc1ccc(CC(C)(C)C)s1)C(Nc1ccc(OC)cc1OC)=C1C(=O)OC(C)(C)OC1=O [Example 16, 5-[[(2,4-Dimethoxyphenyl)amino][[[5-(2,2-dimethylpropyl)-2-thienyl]methyl]heptylamino]-methylene]-2,2-dimethyl-1,3-dioxane-4,6-] | 94 (25) % | 5.53 | – | – | –
20 | CCCCCCN(Cc1ccccn1)C(Nc1ccc(OC)cc1OC)=C1C(=O)OC(C)(C)OC1=O [Example 13, 5-[(2,4-Dimethoxyphenylamino)-[hexyl-(pyridin-2-ylmethyl)-amino]-methylene]-2,2-dimethyl-[1,3]-dioxane-4,6-dione] | 26 (25) % | – | – | – | –
21 | COc1ccc(NC(NC(c2ccc(CC(C)(C)C)s2)C2CCCCC2)=C2C(=O)OC(C)(C)OC2=O)c(OC)c1 (stereo not drawn) [Example 20, 5-[[[Cyclohexyl-[5-(2,2-dimethylpropyl)-2-thienyl]methyl]amino]-[(2,4-dimethoxyphenyl)amino]-methylene]-2,2-dimethyl-1,3-dioxane-4,6-dione] | 95 (25) % | – | – | – | –
22 | CCCCCCN(Cc1cccnc1)C(Nc1ccc(OC)cc1OC)=C1C(=O)OC(C)(C)OC1=O [Example 14, 5-[(2,4-Dimethoxy-phenylamino)-[hexyl-(pyridin-3-ylmethyl)-amino]-methylene]-2,2-dimethyl-[1,3]-dioxane-4,6-dione] | 18 (25) % | – | – | – | –
23 | CCCCCCN(Cc1ccncc1)C(Nc1ccc(OC)cc1OC)=C1C(=O)OC(C)(C)OC1=O [Example 11] | 24 (25) % | – | – | – | –
24 | CCCCCC(C)N(Cc1cc2ccccc2s1)C(Nc1ccc(OC)cc1OC)=C1C(=O)OC(C)(C)OC1=O (stereo not drawn) [Example 23, 5-[[Benzo[b]thiophen-2-ylmethyl-(1-methyl-hexyl)-amino]-(2,4-dimethoxy-phenylamino)-methylene]-2,2-dimethyl-[1,3]dioxane-4,6-dione] | 97 (25) % | 6.46 | – | – | –

Reference: patent EP0531119B1, “N,N',N'-trisubstituted -5-bis-aminomethylene-1,3-dioxane-4,6-dione inhibitors of acyl-CoA: cholesterol-acyl transferase” (AMERICAN HOME PRODUCTS CORPORATION, priority 1991, dated 1993)
